{
  "source": "paper PMC10269664",
  "about": "“Cinnamaldehyde Targets the LytTR DNA-Binding Domain of the Response Regulator AgrA to Attenuate Biofilm Formation of Listeria monocytogenes” (Microbiology Spectrum, 2023)",
  "key": {"[1]": {"biological_target": "T1, AgrA (Listeria monocytogenes, UniProt Q8YAR4, H29A)", "T1 construct": "gene lmo0051", "experiment": "biochemical"}, "[2]": {"biological_target": "T2, AgrA (Listeria monocytogenes, UniProt Q8YAR4, D159A)", "T2 construct": "gene lmo0051", "experiment": "biochemical"}, "[3]": {"biological_target": "T3, AgrA (Listeria monocytogenes, UniProt Q8YAR4)", "T3 construct": "gene lmo0051; entire protein, 242 residues, pET-28a His-tag, E. coli BL21(DE3), fluorescently labelled for MST", "T3 sequence (Q8YAR4 entry or part of it)": "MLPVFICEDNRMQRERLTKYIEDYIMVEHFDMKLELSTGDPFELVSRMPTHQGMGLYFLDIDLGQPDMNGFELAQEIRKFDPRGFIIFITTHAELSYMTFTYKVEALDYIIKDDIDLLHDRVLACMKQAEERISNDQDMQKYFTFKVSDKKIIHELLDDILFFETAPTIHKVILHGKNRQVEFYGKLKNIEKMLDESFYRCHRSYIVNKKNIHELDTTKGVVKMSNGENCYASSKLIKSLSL", "experiment": "microscale thermophoresis", "assay_type": "binding", "conditions": "read-out: Mean Kd ± SD", "text": "microscale thermophoresis on AgrA"}, "[4]": {"biological_target": "T4, AgrA (Listeria monocytogenes, UniProt Q8YAR4, N178A)", "T4 construct": "gene lmo0051", "experiment": "biochemical"}, "[5]": {"biological_target": "T5, AgrA (Listeria monocytogenes, UniProt Q8YAR4, G176A)", "T5 construct": "gene lmo0051", "experiment": "biochemical"}, "[6]": {"biological_target": "T6, AgrA (Listeria monocytogenes, UniProt Q8YAR4, R179A)", "T6 construct": "gene lmo0051", "experiment": "biochemical"}, "[7]": {"biological_target": "T7, AgrA (Listeria monocytogenes, UniProt Q8YAR4, D158A)", "T7 construct": "gene lmo0051", "experiment": "biochemical"}, "[8]": {"biological_target": "T8, AgrA (Listeria monocytogenes, UniProt Q8YAR4, K177A)", "T8 construct": "gene lmo0051", "experiment": "biochemical"}, "[9]": {"biological_target": "T9, AgrCCyto (Listeria monocytogenes, UniProt Q8YAR5)", "T9 construct": "gene lmo0050", "T9 sequence (Q8YAR5 entry or part of it)": "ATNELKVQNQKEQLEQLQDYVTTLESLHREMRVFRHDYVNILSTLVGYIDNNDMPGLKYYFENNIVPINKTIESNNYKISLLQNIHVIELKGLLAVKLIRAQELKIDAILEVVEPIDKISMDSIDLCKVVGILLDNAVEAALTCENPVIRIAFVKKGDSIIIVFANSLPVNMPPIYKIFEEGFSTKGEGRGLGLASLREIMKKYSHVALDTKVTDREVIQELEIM", "conditions": "10 μM ATP; 37 °C"}, "[10]": {"biological_target": "T10, AgrCFL (Listeria monocytogenes, UniProt Q8YAR5)", "T10 construct": "gene lmo0050", "T10 sequence (Q8YAR5 entry or part of it)": "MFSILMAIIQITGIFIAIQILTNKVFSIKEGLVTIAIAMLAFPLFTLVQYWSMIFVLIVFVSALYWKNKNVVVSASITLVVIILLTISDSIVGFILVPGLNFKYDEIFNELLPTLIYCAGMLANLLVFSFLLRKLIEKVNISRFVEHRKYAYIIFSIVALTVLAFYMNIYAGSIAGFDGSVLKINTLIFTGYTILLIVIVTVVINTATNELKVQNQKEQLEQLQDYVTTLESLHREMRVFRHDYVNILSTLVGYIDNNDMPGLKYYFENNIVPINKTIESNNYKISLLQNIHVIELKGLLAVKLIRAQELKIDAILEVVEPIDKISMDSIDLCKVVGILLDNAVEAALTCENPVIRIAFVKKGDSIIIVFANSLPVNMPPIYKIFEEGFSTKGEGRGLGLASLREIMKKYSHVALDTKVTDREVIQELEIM", "conditions": "10 μM ATP; 37 °C"}, "[11]": {"biological_target": "T11, AgrA N178A N178A (Listeria monocytogenes EGD-e) (UniProt Q8YAR4)", "T11 sequence": "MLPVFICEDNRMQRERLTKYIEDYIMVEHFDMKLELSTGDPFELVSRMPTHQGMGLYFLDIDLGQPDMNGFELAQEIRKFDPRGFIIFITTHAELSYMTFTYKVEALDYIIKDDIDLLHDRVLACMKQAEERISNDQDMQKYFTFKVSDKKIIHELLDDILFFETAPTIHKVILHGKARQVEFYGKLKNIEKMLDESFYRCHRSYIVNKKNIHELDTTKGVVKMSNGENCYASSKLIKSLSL", "experiment": "EMSA"}, "[12]": {"biological_target": "T12, AgrA (Listeria monocytogenes EGD-e) (UniProt Q8YAR4)", "T12 sequence": "T11 sequence with A178N", "experiment": "EMSA"}},
  "note": "Where a chain is given by its changes, count along the chain named.",
  "data": [
    {"compound": "O=CC=Cc1ccccc1", "note": "[cinnamaldehyde]", "values": [
      {"measurement": "Kd", "setting": "[1]", "result": "57.7 ± 6.47", "unit": "µM"},
      {"measurement": "Kd", "setting": "[2]", "result": "59 ± 3.44", "unit": "µM"},
      {"measurement": "Kd", "setting": "[3]", "result": "55.9 ± 2.38", "unit": "µM"},
      {"measurement": "Kd", "setting": "[4]", "result": "138 ± 11.4", "unit": "µM"},
      {"measurement": "Kd", "setting": "[5]", "result": "53.2 ± 1.52", "unit": "µM"},
      {"measurement": "Kd", "setting": "[6]", "result": "175 ± 17.8", "unit": "µM"},
      {"measurement": "Kd", "setting": "[7]", "result": "62 ± 4.8", "unit": "µM"},
      {"measurement": "Kd", "setting": "[8]", "result": "58.3 ± 4.42", "unit": "µM"}
    ]},
    {"compound": "Nc1ncnc2c1ncn2[C@@H]1O[C@H](COP(=O)(O)OP(=O)(O)OP(=O)(O)O)[C@@H](O)[C@H]1O", "note": "[ATP]", "values": [
      {"measurement": "Kinase-Lumi chemiluminescence, residual ATP", "setting": "[9]", "result": "After incubation, the remaining ATP was reduced with increasing concentrations of AgrCCyto"},
      {"measurement": "Kinase-Lumi chemiluminescence, residual ATP", "setting": "[10]", "result": "AgrCFL was also subjected to the kinase assay, and similar results were observed"}
    ]},
    {"compound": "CTAATTCACCTCCACTAATATTTTACAACGAATTTACCCATAATAACCAAAAATGTAATGAAATGTCCGATTCTTGTCATGAACGACCAAAAAAGAGCAGAATTGCCGATTTTTTGGATACATTTCAGAATATTCGAACGTGTAAAAAGGACTGTATAATAGGCTTAAAAACCCATATTAATATTTTATTTAAGTGAGTTTATTCATAAAAAAAACCAACTGCAAAAGAATGTTCACAGTTGGCTTTTCCATTTTA (double strand) [agr promoter P2]", "values": [
      {"measurement": "binding", "setting": "[11]", "result": "binds more weakly"},
      {"measurement": "binding", "setting": "[12]", "result": "binds"}
    ]}
  ]
}
